Measurements from patent US7395112B2, “Method and apparatus for treating tumors using low strength electric fields” (priority 2002, dated 2008).

Columns and labels:
B16-F10.9 melanoma [1] = assay: Rechallenge with B16-F10.9 cells of mice cured by LEFCT-EC; type: in vivo, C57BL/6 mice
Text: FIG. 17 is a data plot depicting the cumulative survival of mice previously bearing B16-F10.9 melanoma and cured by LEFCT-EC with cisplatin or taxol following challenge with B16-F10.9 melanoma cells. Mice cured by LEF-chemotherapy that survived for 120-180 days after initial tumor inoculation, were challenged with 2×10^5 B16-F10.9 cells subcutaneously.
Effect of curative LEFCT-EC treatment on generation of anti B16-F10.9 tumor resistance: The resistance of mice cured of B16-F10.9 melanoma by LEF-chemotherapy was analyzed by challenging such cured mice with a tumorigenic dose of B16-F 10.9 melanoma cells.

[2] = tested on: DA3 mammary adenocarcinoma; assay: Winn assay: DA3 cells co-inoculated with splenocytes of cured mice; type: in vivo, BALB/c mice; conditions: 10^5 DA3 cells + 10^7 splenocytes of mice cured via LEFCT-EC with taxol
[3] = tested on: DA3 mammary adenocarcinoma; assay: Rechallenge with DA3 cells of mice cured by LEFCT-EC with taxol; type: in vivo, BALB/c mice; conditions: challenged with 10^5 DA3 cells
Protocol: Effect of curative LEFCT-EC treatment with taxol on generation of anti DA3 tumor resistance: The resistance of mice previously cured of DA3 mammary carcinoma via LEFCT-EC treatment with taxol to tumor growth following challenge by inoculation with 10^5 DA3 cells 120-180 days following initial tumor inoculation was analyzed. […] The MSTs of first-time inoculated normal mice and challenged mice were 38.1 and 46.7 days, respectively. Thus, curative treatment of DA3 tumors via LEFCT-EC treatment with taxol has the capacity to induce significant protection against growth of such a tumor in cured mice challenged with a tumorigenic dose thereof.

[4] = tested on: DA3 mammary adenocarcinoma; assay: LEFCT-EC in mice bearing DA3 mammary adenocarcinoma; type: in vivo, BALB/c mice
Protocol: Animals: BALB/c female mice between the ages of 8 to 12 weeks obtained from the breeding colony of Tel-Aviv University, Israel were used in vivo tumor therapy experiments. Animal care and experimentation was carried out in accordance with Tel-Aviv University guidelines.
Tumor cell line: The highly metastatic, poorly immunogenic mammary adenocarcinoma cell line DA3 (Lopez D M. et al., 1981. J Natl Cancer Inst. 66:191) was used to generate mammary carcinoma tumors in mice. Cells were grown in DMEM supplemented with 100 U/ml penicillin, 100 μg/ml streptomycin, 4 mM glutamine, 1 mM sodium pyruvate, 1% non-essential amino acids and 10% heat-inactivated fetal calf serum (FCS), and cultured at 37° C. in a humidified incubator in an atmosphere of 7% carbon dioxide and 93% air. Tumors of this cell line grown to 1 cm in diameter produce metastatic cells, mainly in the lungs.
Reagents: Taxol (Mead Johnson Oncology Products, A Bristol-Myers Squibb, USA), obtained as a sterile nonpyrogenic solution containing 6 mg/ml paclitaxel, 527 mg/ml of purified Cremophor EL (polyoxyethylated castor oil) and 49.7% (v/v) dehydrated ethanol; and bleomycin (MegaPharm, Israel) were the anti cancer drugs used.
Low-strength electric field enhanced cancer chemotherapy protocol: Mice were subjected to a single treatment of LEF-chemotherapy, once primary tumors reached 5 mm in diameter (about 60-70 mm^3) (11-17 days following subcutaneous tumor cell inoculation). Up to 100 μl of chemotherapeutic agents was injected into the tumor loci. The exposure to electric field was carried out as described above in Example 2 of the Examples section.
Effect of LEFCT-EC using bleomycin or taxol on the survival of DA3 mammary adenocarcinoma bearing nice: BALB/c mice bearing DA3 mammary adenocarcinoma were treated by LEF-chemotherapy with intratumoral taxol (20 mg/kg) (FIG. 19) or bleomycin (30 U/kg) (FIG. 20) administration and their survival rate was compared with that of mice treated only with LEF or chemotherapy.

B16-F10.9 melanoma [5] = assay: LEFCT-EC in mice bearing subcutaneous B16-F10.9 melanoma; type: in vivo, C57BL/6 mice; conditions: for Tumor size (mean ± standard error): 7 days after treatment
Protocol: Animals: C57BL/6 male mice were obtained from the breeding colony of Tel-Aviv University, Israel. Mice were used at 8-12 weeks of age. Animal care and experimentation was carried out in accordance with Tel-Aviv University guidelines.
Melanoma tumor cell line: The highly metastatic, poorly immunogenic B16-F10.9 (F10.9) subclone of the B16 melanoma cell line was used to generate melanoma tumors in mice (Eisenbach L. et al., 1984. Int J Cancer 34:567). Cells were maintained in DMEM supplemented with 100 U/ml penicillin, 100 μg/ml streptomycin, 4 mM glutamine, 1 mM sodium pyruvate, 1% non-essential amino acids and 10% heat-inactivated fetal calf serum (FCS); and were cultured at 37° C. in a humidified incubator in an atmosphere of 7% carbon dioxide and 93% air.
Tumor generation protocol: F10.9 tumors were induced in C57BL/6 mice by subcutaneous injection of 2×10^5 F10.9 cells. Mice were subjected to experimental treatments once tumors reached 5 mm in diameter (about 60-70 mm^3). Chemotherapeutic drugs: The following chemotherapeutic drugs used were: cis-platinum (II) diamminedichloride (cisplatin; #P-4394, Sigma, Israel), dissolved in PBS for injections; Taxol (Mead Johnson Oncology Products, A Bristol-Myers Squibb, USA), obtained as a sterile nonpyrogenic solution containing 6 mg/ml paclitaxel, 527 mg/ml of purified Cremophor EL (polyoxyethylated castor oil) and 5-FU (Abic, Israel).
Low-strength electric field enhanced cancer therapy protocol: Mice were subjected to a single treatment of LEFCT-EC, once tumors reached 5 mm in diameter (11-17 days following tumor cell inoculation). Volumes of up to 100 μl of chemotherapeutic agents were injected into tumor loci, and exposures to electric fields were carried out 3-4 min following intratumoral injection of chemotherapeutic agents. To expose tumors to electric fields, stainless steel electrode needles (Karlsbader insect pins No 0. BioQuip Products, USA) soldered at their brassy ends with thin isolated copper wires were used. Electrodes were inserted to a depth of about 7 mm percutaneously into and in the immediate vicinity of the tumor; one cathode needle in the center of the tumor and three peripheral anodes, at a distance of about 5 mm from the cathode. The needles were connected to an electric pulse generator (Grass S48 Stimulator, USA). The field strength applied was about 40 V/cm; the repetition frequency, 500 Hz; and the pulse width, 180 μs. All mice were anesthetized prior to LEF treatment.
Statistical analysis: Statistical analysis of survival times (Kaplan-Meir test), survival comparisons between groups (Mantel-Cox test) and tumor volume differences between groups (Kolmogorov-Smirnov test) were performed using StatSoft Statistica statistical software. The 10-15% mortality rate in the 5 days following LEF or LEF-chemotherapy was considered as treatment-caused, therefore such cases of mortality were excluded.
Tumor volume determination: performed as described above in Example 1 of the Examples section.

B16-F10.9 melanoma [6] = assay: Surgery with taxol versus LEFCT-EC with taxol in B16-F10.9 melanoma; type: in vivo, C57BL/6 mice
Protocol: Comparison of surgery and LEFCT-EC: To compare the efficacy of LEFCT-EC to that of conventional surgery and chemotherapy treatments, C57BL/6 male mice (8-12 weeks old) were injected with 10^5 B16-F10.9 cells subcutaneously. Once the tumors reached 5 mm in diameter (11-17 days following inoculation), they were surgically removed. One experimental group received a single dose of taxol (20 mg/kg) subcutaneously in close proximity to the site of the operation one day following tumorectomy.

[7] = chemotherapy alone, intratumoral, no LEF

## CC(=O)O[C@H]1C(=O)[C@@]2(C)[C@H]([C@H](OC(=O)c3ccccc3)[C@]3(O)C[C@H](OC(=O)[C@H](O)[C@@H](NC(=O)c4ccccc4)c4ccccc4)C(C)=C1C3(C)C)[C@]1(OC(C)=O)CO[C@@H]1C[C@@H]2O [taxol, paclitaxel]
B16-F10.9 melanoma [1]; mice cured by LEFCT-EC with the drug, challenged with 2×10^5 B16-F10.9 cells
  MST of challenged mice: 73.2 days
B16-F10.9 melanoma [1]; mice previously treated by LEFCT-EC with taxol
  challenged mice that did not develop tumor: about 23.5%
[2]
  Mean survival time: 39 days
[2]; 14 days after inoculation
  Tumor size: 143 µL
[3]
  MST of challenged mice: 46.7 days
[4]; LEF-chemotherapy with the drug
  survival time, Mean: 73.8
  survival time, Median: 54.5
[4]; LEF-chemotherapy, intratumoral taxol 20 mg/kg or bleomycin 30 U/kg, 180 days after tumor inoculation
  cure rate: 17%
[4]; drug alone, intratumoral
  survival time, Mean: 43.9
  survival time, Median: 48
B16-F10.9 melanoma [5]; LEF-CT (drug + LEF), cisplatin 4 mg/kg, bleomycin 8 U/kg, 5-FU 150 mg/kg, taxol 20 mg/kg
  Tumor size (mean ± standard error): 71 ± 25 mm^3
B16-F10.9 melanoma [5]; LEF-chemotherapy: intratumoral drug + LEF about 40 V/cm 12 min, 120 days (cisplatin) or 180 days (taxol, bleomycin) after inoculation
  mean survival time (MST): 83.5 days
B16-F10.9 melanoma [5]; LEF-chemotherapy, 180 days after tumor inoculation
  cure rate / animals alive and free of visible tumor: 26%
B16-F10.9 melanoma [5]; [7]
  effect of drug alone on survival: no effect
  mean survival time (MST): 36.7 days
B16-F10.9 melanoma [5]; intratumoral drug injection alone, same doses
  Tumor size (mean ± standard error): 927 ± 177 mm^3
B16-F10.9 melanoma [5]; pooled statement for cisplatin, taxol or bleomycin
  LEFCT-EC treated mice that died two months and later after treatment with pulmonary metastatic foci, free of primary tumor: About 10%
B16-F10.9 melanoma [6]; LEF-chemotherapy with taxol
  cure rate: 26%
  survival extension: 84 days
B16-F10.9 melanoma [6]; surgery + taxol 20 mg/kg subcutaneously
  MST: 55 days
B16-F10.9 melanoma [6]; surgery + taxol 20 mg/kg subcutaneously one day after tumorectomy
  cure rate: 13%
